The values below come from patent publication US11059815B2, “Synthesis of small molecule histone deacetylase 6 degraders, compounds formed thereby, and pharmaceutical compositions containing them” (Wisconsin Alumni Research Foundation, priority 2018, dated 2021).

One assay relates to HDAC6 and related genes. The experiment in a line: qRT-PCR of mRNA level of HDAC6 and related genes. The class given is cell-based, human. The following applies: 6 h treatment. From the text: To support the involvement of ubiquitination-proteasome system for the decrease of HDAC6 protein level, the degrader was co-treated with binding competitors or pathway blockers. […] Moreover, it also confirmed the role of the pomalidomide moiety in modulating IKZFs. […] Additionally, proteasome inhibitor MG132 and Bortezomib were used to block the down-stream proteasome degradation. […] Acetylated tubulin level was suppressed as well. This confirms that HDAC6 degradation is responsible for the acetylation of its substrates rather than inhibition by the “warhead” moiety. To exclude the possible transcriptional impact by degraders, qRT-PCR was used to examine the mRNA level of HDAC6 and related genes (data not shown). […] This is consistent with the hypothesis that the cellular knockdown of HDAC6 is due to direct protein degradation, not by transcriptional downregulation.
After treatment, cells were harvested and washed with cold PBS twice. […] The concentration of RNA was measured by Plate Reader. […] Ct value at automatically selected threshold was reported and calculated by 2^−ΔΔCt method. (Livak, K. J.; Schmittgen, T. D. “Analysis of Relative Gene Expression Data Using Real-Time Quantitative PCR and the 2 C T Method” METHODS 2001, 25, 402-408. The bar graph was generated and by GraphPad Prism.
In general terms: Quantitative PCR measures a nucleic acid by following its amplification.

For a further assay, the system named is acetylated histone H3. The experiment in a line: Western blot of acetylated histone H3 in MM1S cells. The class given is cell-based, human. From the text:
(§1) FIGS. 12A, 12B, and 12C are a series of western blots showing that degrader 12d selectively promotes HDAC6 degradation in MM1S cells.
To further examine the selectivity of the new generation of HDAC6 degraders, compound 12d was compared to SAHA, Next-A, degrader 1 and pan-inhibitor 2 for change of acetylated a-tubulin and acetylated histone H3.
When the cells reached 90% confluence, they were harvested and plated 1×10^6 cells per well in 6-well plate. After overnight seeding, the cells were treated with a solution of compounds or vehicle in culture medium. The culture medium was removed after treatment and then washed twice with cold PBS. To obtain whole cell lysate, all cells were treated with RIPA lysis buffer (25 mM Tris, pH 7-8, 150 mM NaCl, 0.1% SDS, 0.5% sodium deoxycholate, 1% Triton X-100, protease inhibitor cocktail (Roche, 1 tablet per 10 mL) and 1 mM PMSF) on ice for 10 minutes. Supernatant was collected after spinning down at 16,000 g at 4° C. for 15 minutes. Protein concentration was measured by using the Pierce BCA protein assay (Thermo Fisher Scientific). […] The Immunoblot was generated by ChemiDoc MP Imaging Systems (Bio-Rad) and analyzed by Image J software (only available for download online at https://imagej.net/Downloads). […]
(In general: In western blotting, separated proteins are transferred to a membrane and probed.)

The target in another assay is T1, HDAC1 (Homo sapiens, UniProt Q13547).
T1 construct: endogenous in cells; host or cells: MM1S
The experiment in a line: Western blot of HDAC1 in MM1S cells (time course). It is filed as cell-based. The following applies: 100 nM. The method, then: as §1
To probe the efficiency of 12d, MM1S was treated with 100 nM 12d and the change of HDAC6 protein level was monitored by time. The HDAC6 degradation started around 1 h and reached maximal degradation effect at 4 h. The degradation of IKZFs was only observed after 4 h. Meanwhile, HDAC1 was not affected and the acetylation of tubulin was accumulated by time. To study the re-synthesis rate of HDAC6 after degradation, “wash-out” experiments were performed (data not shown). Cells were treated with 100 nM 12d for 6 h and then washed with PBS to remove remaining degraders. HDAC6 expression was monitored for 48 h. […] Selected degraders were also tested in other cell lines and they are effective among all tested cancer cell lines.
When the cells reached 90% confluence, they were harvested and plated 1×10^6 cells per well in 6-well plate. After overnight seeding, the cells were treated with a solution of compounds or vehicle in culture medium. […] Protein concentration was measured by using the Pierce BCA protein assay (Thermo Fisher Scientific). […] The Immunoblot was generated by ChemiDoc MP Imaging Systems (Bio-Rad) and analyzed by Image J software (only available for download online at https://imagej.net/Downloads). […]

T1 sequence (Q13547 whole entry): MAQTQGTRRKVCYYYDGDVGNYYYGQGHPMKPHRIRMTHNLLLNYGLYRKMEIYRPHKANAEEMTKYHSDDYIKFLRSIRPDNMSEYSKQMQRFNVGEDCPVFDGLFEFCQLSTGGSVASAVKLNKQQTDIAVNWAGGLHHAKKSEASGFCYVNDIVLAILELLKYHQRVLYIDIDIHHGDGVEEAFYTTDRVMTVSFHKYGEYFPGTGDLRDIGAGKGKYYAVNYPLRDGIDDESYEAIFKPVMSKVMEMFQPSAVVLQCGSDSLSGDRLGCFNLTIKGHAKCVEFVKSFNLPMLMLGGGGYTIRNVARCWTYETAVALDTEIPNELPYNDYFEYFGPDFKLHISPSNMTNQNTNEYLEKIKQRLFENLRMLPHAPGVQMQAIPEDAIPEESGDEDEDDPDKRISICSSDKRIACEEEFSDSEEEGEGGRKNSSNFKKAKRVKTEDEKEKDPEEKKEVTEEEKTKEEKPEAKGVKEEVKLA

`CCCCN(Cc1ccc(C(=O)NO)cc1)C(=O)Nc1ccc(OCCCCCn2cc(CNc3cccc4c3C(=O)N(C3CCC(=O)NC3=O)C4=O)nn2)cc1` (stereo not drawn) [Compound 12d, 4-((1-butyl-3-(4-((5-(4-(((2-(2,6-dioxopiperidin-3-yl)-1,3-dioxoisoindolin-4-yl)amino)methyl)-1H-1,2,3-triazol-1-yl)pentyl)oxy)phenyl)ureido)methyl)-N-hydroxybenzamide]: the “effect on mRNA level of HDACs and IKZFs” value in the assay with HDAC6 and related genes is given as “Little to no effects”. Besides, the “change of acetylated histone H3” value with acetylated histone H3 is on record as “No increase”. In addition, the “effect on HDAC1” value at HDAC1 is listed as “not affected”.
